Results taken from patent US5525731A, “Camptothecin analogues and methods of preparation thereof” (priority 1994, dated 1996).
Entries after “also recorded” stand apart in the source; their conditions may differ. Like-named read-outs stand apart in the source and are kept apart here.

How the values were obtained:
[1] = tested on: HL-60 cells (human promyelocytic leukemia); test: Cytotoxicity, XTT assay, HL-60 cell growth, 72 hr exposure; assay type: cell-based
Description: (§1) The synthesized compounds were evaluated for their cytotoxic effects on HL-60 (human promyelocytic leukemia) and 833K cells. The assay was conducted in 96-well microplates. The compounds were serially diluted in 4 to 6 steps with dimethylsulfoxide and added to cell incubation medium (RPMI 1640 containing 10% fetal. […]) at the final concentration of 1.0% dimethylsulfoxide in the medium. The cytotoxicity of the compounds were determined by the XTT-microculture tetrazolium assay: 2',3'-bis(2-methoxy-4-nitro-5-sulfophenyl)-3-[(phenylamino)carbonyl]-2H-tetrazolium hydroxide (XTT) was prepared at 1 mg/mL in prewarmed (37° C.) medium without serum. Phenazine methosulfate (PMS) and fresh XTT were mixed together to obtain 0.075 mM PMS-XTT solution (25 mL of the stock with 5 mg PMS added per 5 mL of 1 mg/mL XTT). Fifty microliters of this mixture were added to each well of the cell culture after 72 hours exposure to the testing compound. After incubation at 37° C. for 6 hours, the absorbance was determined at 450 nm and 630 nm with a microplate reader (EL 340, Bio-Tek Instruments, Inc., Winooski, Vt.). THe median-effect inhibitory concentration (IC50) was determined from a medium-effect plot using computer software for the purpose.
(§2) The results of the assay of cytotoxicity towards HL-60 and 833K cells of several analogues of camptothecin prepared in accord with the invention are illustrated in the accompanying Tables I and II, along with comparison data for native camptothecin. The data shown indicate that the camptothecin analogues prepared by the new methods provided by the invention have significant cytotoxic activity against cancer cells. […]

833K cells = test: Cytotoxicity, XTT assay, 833K cell growth, 72 hr exposure; assay type: cell-based; settings: for IC50: read-out: Inhibitory Concentrations IC50; for IC70: read-out: Inhibitory Concentrations IC70; for IC95: read-out: Inhibitory Concentrations IC95
Description: as §1, §2

[2] = Reactivity with thiophenol in dichloromethane
Description: (For a related example of thiophenol addition to α-methylene-γ-lactones, see: Marshall, J. A., et al., J. Org. Chem., 47, 699 (1982).) NMR analysis of the crude reaction mixture indicated formation of the expected adducts 58 and 59.

topoisomerase-I = test: Inhibition of topoisomerase-I activity (in words); assay type: biochemical
844K cells = test: Cytotoxicity, XTT assay, 844K cells (so in the source); assay type: cell-based; settings: Table II, read-out: Inhibitory Concentrations IC50
Description: as §1

Sarcoma 180 = tested on: Sarcoma 180
Description: The control lane (Table A) indicates separate inoculation of nine mice with B-16 melanoma and sarcoma 180.
Anti-tumor activity of the newly synthesized compounds and the established drugs (as positive controls) against solid tumors (B-16 melanoma and sarcoma 180) was tested in BD2 F1 mice. Tumor (about 2.5×10^6 cells) was inoculated subcutaneously (s.c.). Treatment with the drug started on day 4 after inoculation. The drug was injected intraperitoneously (i.p) daily (QD) for five days. Control mice received the same volume (50 μl) of the solvent vehicle (Dinso) as the drug-treated animals. Tumor size was evaluated every few days using a caliper for both the control and the treated group. Average body weight changes were recorded daily. Any lethality due to high dose drug toxicity or due to tumor progression was also recorded.
(§3) Schedule: QD × 5. I.P. started day 4

[3] = Cytotoxicity of compound 33 (in words); assay type: cell-based; settings: relative to camptothecin
B-16 melanoma = assay type: in vivo, BD2 F1 mice
Description: Average body weight changes were recorded daily.
Tumor: B16 Melanoma Drug A = Camptothecin
Inoculation: 2 × 10^6 cells. S.C.
as §3

[4] = Homo sapiens, HL-60, 72 h, read-out: Inhibitory Concentrations IC50, Table I, HL-60 (head HL-6), 72 hr, XTT
[5] = Homo sapiens, HL-60, 72 h, read-out: Inhibitory Concentrations IC50, Table II, HL-60, 72 hr, XTT
[6] = Homo sapiens, HL-60, 72 h, read-out: Inhibitory Concentrations IC70, Table I, HL-60 (head HL-6), 72 hr, XTT
[7] = Homo sapiens, HL-60, 72 h, read-out: Inhibitory Concentrations IC70, Table II, HL-60, 72 hr, XTT
[8] = Homo sapiens, HL-60, 72 h, read-out: Inhibitory Concentrations IC95, Table I, HL-60 (head HL-6), 72 hr, XTT
[9] = Homo sapiens, HL-60, 72 h, read-out: Inhibitory Concentrations IC95, Table II, HL-60, 72 hr, XTT
[10] = Table I, HL-60 (head HL-6), 72 hr, XTT
[11] = Table I, HL-60 (head HL-6), 72 hr, XTT, read-out: Inhibitory Concentrations IC50
[12] = Table II, HL-60, 72 hr, XTT, read-out: Inhibitory Concentrations IC50
[13] = Table II, HL-60, 72 hr, XTT, read-out: Inhibitory Concentrations IC70
[14] = Table II, HL-60, 72 hr, XTT, read-out: Inhibitory Concentrations IC95
[15] = Homo sapiens, HL-60, 72 h, Table I, HL-60 (head HL-6), 72 hr, XTT, read-out: Inhibitory Concentrations IC50
[16] = Homo sapiens, HL-60, 72 h, Table I, HL-60 (head HL-6), 72 hr, XTT, read-out: Inhibitory Concentrations IC70
[17] = Homo sapiens, HL-60, 72 h, Table I, HL-60 (head HL-6), 72 hr, XTT, read-out: Inhibitory Concentrations IC95
[18] = Homo sapiens, HL-60, 72 h, Table II, HL-60, 72 hr, XTT, read-out: Inhibitory Concentrations IC50
[19] = Homo sapiens, HL-60, 72 h, Table II, HL-60, 72 hr, XTT, read-out: Inhibitory Concentrations IC70
[20] = Homo sapiens, HL-60, 72 h, Table II, HL-60, 72 hr, XTT, read-out: Inhibitory Concentrations IC95
[21] = Homo sapiens, 72 h, Table I, 72 hr, XTT
[22] = Homo sapiens, Table I, 72 hr, XTT
[23] = B-16 melanoma, 10 mg/kg i.p. QD × 5, day 7
[24] = B-16 melanoma, 30 mg/kg i.p. QD × 5, day 7

CCC1(O)C(=O)OC(C)c2c1cc1n(c2=O)Cc2cc3ccccc3nc2-1 (stereo not shown) [WS-6, 17-Methylcamptothecin]
IC50 [1, 4]: 266 nM
IC50 [1, 5]: 266 nM
IC70 [1, 6]: 432 nM
IC70 [1, 7]: 432 nM
IC95 [1, 8]: 1430 nM
IC95 [1, 9]: 1430 nM
IC50 (833K cells; Homo sapiens, 72 h): 3710 nM
IC70 (833K cells; Homo sapiens, 72 h): 7340 nM
IC95 (833K cells; Homo sapiens, 72 h): 40100 nM

CCC1C(=O)OCc2c1c(C(=O)OC)c1n(c2=O)Cc2cc3ccccc3nc2-1 (stereo not shown) [WS-3, 14-Carbomethoxy-20-deoxycamptothecin]
Inhibitory Concentrations IC70 [1, 10]: 0.318
Inhibitory Concentrations IC95 [1, 10]: 1.082
IC50 [1, 11]: 914 nM
IC50 [1, 12]: 194 nM
IC70 [1, 13]: 318 nM
IC95 [1, 14]: 1082 nM
IC50 (833K cells; Table I, 72 hr, XTT): > 50000 nM

CCC1C(=O)OCc2c1cc1n(c2=O)Cc2cc3ccccc3nc2-1 (stereo not shown) [WS-2, 20-Deoxycamptothecin]
IC50 [1, 15]: 39 nM
IC70 [1, 16]: 52 nM
IC95 [1, 17]: 109 nM
IC50 [1, 18]: 39 nM
IC70 [1, 19]: 52 nM
IC95 [1, 20]: 109 nM
IC50 (833K cells; [21]): 310 nM
IC70 (833K cells; [22]): 143 nM
IC95 (833K cells; [22]): 3170 nM

CC=C1C(=O)OCc2c1cc1n(c2=O)Cc2cc3ccccc3nc2-1 [WS-8, 20-dehydrated-CPT]
IC50 [1, 15]: 3440 nM
IC70 [1, 16]: 5470 nM
IC95 [1, 17]: 17100 nM
IC50 [1, 18]: 3440 nM
IC70 [1, 19]: 5470 nM
IC95 [1, 20]: 17100 nM
IC50 (833K cells; [21]): 1700 nM
IC70 (833K cells; [22]): 4750 nM
IC95 (833K cells; [22]): 50400 ± 13800 nM

C=C1C(=O)OCc2c1cc1n(c2=O)Cc2cc3ccccc3nc2-1 [Compound 32, 18-nor-anhydrocamptothecin]
reaction with thiophenol [2]: consumption of starting material
inhibition of topoisomerase-I activity (topoisomerase-I): potent camptothecin-like inhibition of topoisomerase-I activity

CCC1C(=O)OCc2c1c(C(=O)OC)c1n(c2=O)Cc2cc3ccccc3nc2-1 (stereo not shown) [WS-4, 14-Carbomethoxy-20-deoxycamptothecin]
Inhibitory Concentrations IC70 [1, 10]: 12.0
Inhibitory Concentrations IC95 [1, 10]: 618.7
IC50 [1, 11]: 2440 nM
IC50 [1, 12]: 2440 nM
IC70 [1, 13]: 12000 nM
IC95 [1, 14]: 618700 nM
IC70 (833K cells; [22]): 5800 nM
IC95 (833K cells; [22]): 59800 nM
IC50 (833K cells; Table I, 72 hr, XTT): 2260 nM

CC[C@@]1(O)C(=O)OCc2c1cc1n(c2=O)Cc2cc3c(CN(C)C)c(O)ccc3nc2-1 [Topotecan]
IC50 (844K cells): 46 nM

CC1(O)C(=O)OCc2c1cc1n(c2=O)Cc2cc3ccccc3nc2-1 (stereo not shown) [WS-7, 20-Methylcamptothecin]
IC50 [1, 4]: 62 nM
IC50 [1, 5]: 62 nM
IC70 [1, 6]: 90 nM
IC70 [1, 7]: 90 nM
IC95 [1, 8]: 229 nM
IC95 [1, 9]: 229 nM
IC50 (833K cells; Homo sapiens, 72 h): 82 nM
IC70 (833K cells; Homo sapiens, 72 h): 290 nM
IC95 (833K cells; Homo sapiens, 72 h): 7160 nM

CCC1(O)C(=O)OCc2c1c(C(=O)OC)c1n(c2=O)Cc2cc3ccccc3nc2-1 (stereo not shown) [WS-5, 14-Carbomethoxy-Camptothecin]
IC50 [1, 4]: > 5000 nM
IC50 [1, 5]: > 5000 nM
IC50 (833K cells; Homo sapiens, 72 h): 63500 nM
IC70 (833K cells; Homo sapiens, 72 h): 83700 nM
IC95 (833K cells; Homo sapiens, 72 h): 898000 ± 750000 nM

C=C1C(=O)OCc2c1cc1n(c2=O)Cc2c-1nc1ccc(O)cc1c2CC [Compound 33, 7-Ethyl-10-hydroxy-18-nor-anhydrocamptothecin]
DEATHS (D/L) (Sarcoma 180; Sarcoma 180, 10 mg/kg, day 7): 0/2
DEATHS (D/L) (Sarcoma 180; Sarcoma 180, 10 mg/kg, day 14): 0/2
DEATHS (D/L) (Sarcoma 180; Sarcoma 180, 30 mg/kg, day 7, death on day 4 after treatment, listed as 18-nor-20-dehydro-7-ethyl-10-hydroxycamptothecin): one of the two subjects died after day 4 of treatment
DEATHS (D/L) (Sarcoma 180; Sarcoma 180, 30 mg/kg, day 7, death on day 4 after treatment, listed as 20-CH2 -7-Et-10-OH-CPT): One of two mice died on day 4 after treatment
DEATHS (D/L) (Sarcoma 180; Sarcoma 180, 30 mg/kg, day 7, death on day 4 after treatment, listed as B): 1/2
DEATHS (D/L) (Sarcoma 180; Sarcoma 180, 30 mg/kg, day 14): 0/1
cytotoxicity [3]: significantly reduced levels relative to camptothecin
reaction with thiophenol [2]: consumption of starting material
inhibition of topoisomerase-I activity (topoisomerase-I): potent camptothecin-like inhibition of topoisomerase-I activity; also recorded: still retaining enzyme inhibitory function
AVERAGE TUMOR VOLUME (B-16 melanoma; B16 melanoma, 10 mg/kg, day 7): 0.163 CM^3
PERCENT OF CONTROL (tumor volume) (B-16 melanoma; B16 melanoma, 10 mg/kg, day 7): 85.8%
AVERAGE TUMOR VOLUME (B-16 melanoma; B16 melanoma, 10 mg/kg, day 14): 2.320 CM^3
AWC (average weight change) (B-16 melanoma; B16 melanoma, 10 mg/kg, day 14): +2.7 GM
PERCENT OF CONTROL (tumor volume) (B-16 melanoma; B16 melanoma, 10 mg/kg, day 14): 72.7%
AVERAGE TUMOR VOLUME (B-16 melanoma; B16 melanoma, 30 mg/kg, day 7): 0.036 CM^3
PERCENT OF CONTROL (tumor volume) (B-16 melanoma; B16 melanoma, 30 mg/kg, day 7): 18.9%
AVERAGE TUMOR VOLUME (B-16 melanoma; B16 melanoma, 30 mg/kg, day 14): 2.925 CM^3
AWC (average weight change) (B-16 melanoma; B16 melanoma, 30 mg/kg, day 14): +2.7 GM
PERCENT OF CONTROL (tumor volume) (B-16 melanoma; B16 melanoma, 30 mg/kg, day 14): 91.7%
activity compared with authentic camptothecin (B-16 melanoma; B-16 melanoma and sarcoma 180 together): compares favorably with that of authentic camptothecin
decreased body weight (B-16 melanoma; B-16 melanoma, 10 mg/kg): 1.4 gm
tumor volume decrease (B-16 melanoma; B-16 melanoma, 10 mg/kg): 14%
AWC (average weight change) (B-16 melanoma; [23]): -1.4 gm
Ave Tumor Volume (T/C) (B-16 melanoma; [23]): 0.858
decreased body weight (B-16 melanoma; B-16 melanoma, 30 mg/kg): 1.9 gm
tumor volume decrease (B-16 melanoma; B-16 melanoma, 30 mg/kg): 81%
AWC (average weight change) (B-16 melanoma; [24]): -1.9 gm
Ave Tumor Volume (T/C) (B-16 melanoma; [24]): 0.189
